Results as given in patent US8026254B2, “Therapeutic agents useful for treating pain” (Purdue Pharma, L.P., priority 2002, dated 2011).
pKi: −log10 of the molar value.

Biological target: μ-opioid receptors (Homo sapiens, UniProt P35372)
Assay: μ-opioid receptor radioligand dose-displacement binding assay ([3H]-diprenorphine)
Method: μ- and ORL-1-Receptor-Binding-Assay Procedures
Radioligand dose-displacement binding assays for ORL-1 and […] use 0.1 nM [^3H]-nociceptin or 0.2 nM [^3H]-diprenorphine (NEN, Boston, Mass.), respectively, with […] membrane protein/well in a final volume of […] binding buffer (10 mM MgCl2, 1 mM EDTA, 5% DMSO, 50 mM HEPES, pH 7.4). Reactions are carried out in the absence or presence of increasing concentrations of unlabled nociceptin (American Peptide Company, Sunnyvale, Calif.) or naloxone, for ORL-1 and μ, respectively. All reactions are conducted in 96-deep well polypropylene plates for 1-2 h at room temperature. Binding reactions are terminated by rapid filtration onto 96-well Unifilter GF/C filter plates (Packard, Meriden, Conn.) presoaked in 0.5% polyethylenimine using a 96-well tissue harvester (Brandel, Gaithersburg, Md.) followed performing by three filtration washes with 500 μL of ice-cold binding buffer. Filter plates are subsequently dried at 50° C. for 2-3 h. BetaScint scintillation cocktail (Wallac, Turku, Finland) is added (50 μl/well), and plates are counted using a Packard Top-Count for 1 min/well. The data are analyzed using the one-site competition curve fitting functions in GraphPad PRISM v. 3.0 (San Diego, Calif.).

μ-opioid receptors, sequence (P35372 whole entry): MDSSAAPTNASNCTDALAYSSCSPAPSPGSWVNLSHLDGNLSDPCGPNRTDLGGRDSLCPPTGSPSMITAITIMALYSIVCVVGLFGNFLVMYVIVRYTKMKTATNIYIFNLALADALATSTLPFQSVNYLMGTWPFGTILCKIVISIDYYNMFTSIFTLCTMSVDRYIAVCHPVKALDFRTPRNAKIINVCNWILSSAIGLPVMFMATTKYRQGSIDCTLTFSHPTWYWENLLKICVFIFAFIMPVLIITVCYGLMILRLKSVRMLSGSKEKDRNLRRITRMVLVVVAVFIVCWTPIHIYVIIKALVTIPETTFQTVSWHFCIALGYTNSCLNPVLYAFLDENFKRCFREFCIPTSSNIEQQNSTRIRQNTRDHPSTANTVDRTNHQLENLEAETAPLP

CN(C)C(=O)C(CCN1CCC(c2ccccc2)(c2nnn[nH]2)CC1)(c1ccccc1)c1ccccc1 [AFD]
pKi: 8.49
